Like-named read-outs stand apart in the source and are kept apart here.
Columns and labels:
[1] = test system: GABA transporter (L-GAB1 cells); test: [3H]GABA uptake by L-GAB1 cells; format: cell-based, human; conditions: for ligand-specificity of [3H]GABA uptake by L-GAB1 cells: competitor at 100-fold excess relative to [3H]GABA
Procedure: Using concentrations of [^3 H] GABA ranging from 2 to 500 μM, the kinetic profile of GABA uptake was determined for both L-GAB1 and L-M cells. The initial velocity of GABA uptake was measured and plotted against the corresponding [^3 H] GABA concentration for both cell lines. […] The velocity profile for L-GAB1 cells was subtracted by that of L-M cells, and the resulting data used for a double-reciprocal plot of velocity-^1 against GABA concentration-^1. The velocity profile for L-M cells was also transformed into a double-reciprocal plot.
Several known inhibitors of high-affinity GABA uptake were used to examine their efficacies in inhibiting [^3 H] GABA uptake by L-GAB1 cells. […] Each of these agents was used at several concentrations ranging from 1 to 100 μM in assays of [^3 H] GABA uptake by L-GAB1 cells. […] GABA uptake by L-GAB1 cells.
L-GAB1 cells were also analyzed in terms of their ligand-specificity in the high-affinity GABA uptake mechanism.

[2] = test system: neuronal and glial GABA uptake systems in the CNS; conditions: neuronal and glial uptake systems, literature; read-out: IC50, high-affinity GABA uptake in the CNS; cited from earlier work
[3] = molecular target: T1, human 5HT transporter (L-S1 cells) (Homo sapiens, UniProt P31645); test: [3H]-5-HT uptake by L-S1 cells; format: cell-based
T1 construct: expressed in transfected cells; host or cells: mouse L-M fibroblasts (ATCC CCL 1.2) transfected with total human genomic DNA and pSV2neo; clone L-S1
Procedure: The cells were incubated at 37° C. for an additional 40 min.
L-S1 and L-M cells were preplated into 96-well culture plates. For uptake assays, the growth medium was removed from each well and the cells rinsed several times with oxygenated Ringer's buffer supplemented with 0.5 mM pargyline and 0.5 mM ascorbate. […] […] […] The cells remaining in the wells were lysed with 1% sodium dodecyl sulphate (SDS) and transferred to counting vials containing 5 ml of ACS scintillant (Amersham), for liquid scintillation spectrometry. For each assay, 6-8 parallel sets of wells were assayed simultaneously.
(§1) Non-specific activity was determined from parallel assays carried out at 0° C. Initial velocities were calculated in terms of pmol/mg protein/min by subtracting velocity values obtained at 0° C. from those obtained at 37° C.
(§2) Cells were assayed in the presence of each inhibitor for 40 minutes at 37° C., washed with Ringer's buffer and prepared for counting as previously described. Five confluent wells were assayed at each inhibitor concentration. The IC50 value for each inhibitor was determined by plotting the percent activity against the logarithm of inhibitor concentration. Measured levels of uptake in the presence of inhibitors were expressed as the percentage of maximal uptake (100 %) in the absence of inhibitor.

[4] = molecular target: T2, human 5HT transporter (L-S2 cells) (Homo sapiens, UniProt P31645); test: [3H]-5-HT uptake by L-S2 cells; format: cell-based
T2 construct: expressed in transfected cells; host or cells: mouse L-M fibroblasts (ATCC CCL 1.2) transfected with total human genomic DNA and pSV2neo; clone L-S2
Procedure: L-S1 and L-M cells were preplated into 96-well culture plates. For uptake assays, the growth medium was removed from each well and the cells rinsed several times with oxygenated Ringer's buffer supplemented with 0.5 mM pargyline and 0.5 mM ascorbate. […] The radioligand was added to a final concentration of 0.1 μM and incubated with the cells at 37° C. for 40 minutes. The incubation mixture was then removed and each well was washed three times at room temperature with Ringer's buffer. The cells remaining in the wells were lysed with 1% sodium dodecyl sulphate (SDS) and transferred to counting vials containing 5 ml of ACS scintillant (Amersham), for liquid scintillation spectrometry. For each assay, 6-8 parallel sets of wells were assayed simultaneously.
as §1, §2

[5] = test system: Rat Synaptosomes; conditions: literature values; read-out: Representative IC50, Rat Synaptosomes; cited from earlier work
[6] = test system: aspartate/glutamate co-transport system (L-Aspl cells); test: D-[3H]aspartate uptake by L-Aspl cells; format: cell-based, human
Procedure: Kinetic analyses of D-[^3 H] […] Asp. […] Asp uptake.
The specificity of the high-affinity transport mechanism in L-Aspl cells also was examined. […] Asp.
The high-affinity transport system in L-Aspl cells was also analyzed in terms of its relative sensitivity to compounds specific for various subtypes of excitatory amino acid (EAA) receptors.
A series of known inhibitors of high-affinity D-Asp uptake systems (including L-cysteic acid (L-CA), L-cysteine sulfinic acid (L-CSA), aminophosphonoproprionic acid (APPA) and D-threoaspartic acid (THAA)) were also tested for their effects on D-[^3 H] Asp uptake by L-Aspl cells.

[7] = test system: human L-glutamate transporter (L-Glul cells); test: L-[3H]glutamate uptake by L-Glul cells; format: cell-based; conditions: unlabelled neurotransmitters, EAA receptor ligands, co-transporter inhibitors
Procedure: Both L-Glul and L-M cells were assessed for their kinetic properties of [^3 H] Glu uptake, and the results were analyzed by fitting to Michaelis-Menten kinetics. This was done by incubating cells with differing concentrations of [^3 H] Glu (ranging from 0.05 to 2 μM) for 10 minutes, at both 37° C. and 0° C. The amount of [^3 H] Glu retained by the cells following incubation was then quantitated and converted (using the manufacturer's specific activity for [^3 H] Glu to the corresponding picomole-equivalent of the radioligand, for each concentration of radioligand at each temperature. Then, the pmol value is normalized by the length of incubation and the amount of protein corresponding to the number of cells assayed. The resulting value, expressed in units of pmol/min/mg protein, is the initial velocity value for each concentration of [^3 H] Glu at each temperature. The initial velocity measured at 37° C. represents total initial velocity; the initial velocity measured at 0° C. represents nonspecific initial velocity. The difference between these two velocity values is then the specific initial velocity, denoted by "V", for each concentration of [^3 H] Glu.
Various drugs specific for excitatory amino acid (EAA) receptor subtypes were assessed for their effects on [^3 H] Glu uptake by L-Glul cells.
Glu uptake by L-Glul cells.

[8] = ligand 10 μM, 10 min preincubation, 0.1 μM [3H]-5HT, 40 min, 37° C. (FIG. 1)

T1 sequence (P31645 whole entry): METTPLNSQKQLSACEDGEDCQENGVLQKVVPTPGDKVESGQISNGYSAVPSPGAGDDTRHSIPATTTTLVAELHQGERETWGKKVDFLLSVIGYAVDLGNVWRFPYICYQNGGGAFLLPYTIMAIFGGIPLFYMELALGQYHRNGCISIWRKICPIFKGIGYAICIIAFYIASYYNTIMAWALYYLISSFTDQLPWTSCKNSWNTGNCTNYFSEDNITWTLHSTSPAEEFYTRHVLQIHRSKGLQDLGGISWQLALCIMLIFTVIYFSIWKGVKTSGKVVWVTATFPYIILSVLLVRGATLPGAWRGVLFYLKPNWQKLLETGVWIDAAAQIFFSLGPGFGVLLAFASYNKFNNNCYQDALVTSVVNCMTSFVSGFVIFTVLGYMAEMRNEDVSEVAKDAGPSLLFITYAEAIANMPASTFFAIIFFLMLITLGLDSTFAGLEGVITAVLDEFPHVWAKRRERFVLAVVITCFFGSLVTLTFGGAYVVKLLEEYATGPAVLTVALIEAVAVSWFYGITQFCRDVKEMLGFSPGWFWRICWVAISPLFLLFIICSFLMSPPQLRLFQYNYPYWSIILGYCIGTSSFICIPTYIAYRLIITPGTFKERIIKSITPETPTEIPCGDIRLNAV
T2 sequence (P31645 whole entry): as above

Compound	effect on D-[3H]Asp uptake by L-Aspl cells [6]	effect on [3H]Glu uptake by L-Glul cells [7]	further results
O=C(O)C1CCCNC1 (racemic) [NA, (±)nipecotic acid]			inhibition of total [3H]GABA uptake by L-GAB1 cells ([1]; effect saturating by 100 μM): less than 20%; effect of GABA uptake inhibitors on [3H]GABA uptake by L-GAB1 cells ([1]; inhibitor 1 to 100 μM): some effect; IC50 [2]: 10 to 200 µM
COc1ccc2[nH]cc(CCN)c2c1 [5-methoxytryptamine]			IC50 [3]: 3.5 µM; IC50 [4]: 1.5 µM; IC50 [5]: 25 µM
NC(CCCC(=O)O)C(=O)O (centres unmarked) [AAA, a-aminoadipic acid]	virtually without inhibitory effect		
Cc1onc(O)c1CC(N)C(=O)O [AHMIP, D-amino-3-hydroxy-5-methyl-4-isoxazoneproprionic acid]		no inhibitory effect	
NC(CCP(=O)(O)O)C(=O)O (centres unmarked) [AP4, 2-amino-4-phosphonobutyric acid]		without effect	
NC(CP(=O)(O)O)C(=O)O (centres unmarked) [APPA, aminophosphonoproprionic acid]	moderate in inhibitory potency		
NC(CCCP(=O)(O)O)C(=O)O (centres unmarked) [APV, 2-amino-5-phosphonovaleric acid]		without effect	
N[C@H](CCS(=O)(=O)O)C(=O)O [D-homocysteic acid]		without effect	
CCOC(=O)CC[C@H](N)C(=O)OCC [DEEG, glutamate diethylester]	without effect		
N[C@H](CCC(=O)NCS(=O)(=O)O)C(=O)O [GAMS]		without effect	
N[C@@H](CS(=O)(=O)O)C(=O)O [L-CA, L-cysteic acid]	potent inhibitory effects		
N[C@@H](CS(=O)O)C(=O)O [L-CSA, L-cysteine sulfinic acid]	potent inhibitory effects		
C[C@H](N)C(=O)O [L-alanine]			ligand-specificity of [3H]GABA uptake by L-GAB1 cells [1]: somewhat sensitive
N=C(N)NCCC[C@H](N)C(=O)O [L-arginine]			ligand-specificity of [3H]GABA uptake by L-GAB1 cells [1]: somewhat sensitive
N[C@@H](CS)C(=O)O [L-cysteine]	slight and not statistically significant		
NC(=O)CC[C@H](N)C(=O)O [L-glutamine]	slight and not statistically significant		
N[C@@H](CCS(=O)(=O)O)C(=O)O [LHCA, L-homocysteic acid]	without effect		
COc1ccc2[nH]cc(CCNC(C)=O)c2c1 [N-Acetyl-5-methoxytryptamine, N-acetyl-5-methoxytryptamine]			IC50 [5]: 66 µM
CN[C@H](CC(=O)O)C(=O)O [NMDA, N-methyl-D-aspartic acid]	without effect	without effect	

Compound	effect on D-[3H]Asp uptake by L-Aspl cells [6]	effect on [3H]Glu uptake by L-Glul cells [7]	further results
NC[C@H](O)c1ccc(O)c(O)c1 [Norepinephrine, norepinephrine]		only unlabelled L-glutamate seems to mediate some inhibition	ligand-specificity of [3H]GABA uptake by L-GAB1 cells [1]: not inhibited; IC50 [5]: > 10 µM
N[C@@H](C(=O)O)[C@@H](O)C(=O)O [THAA, D-threoaspartic acid]	potent inhibitory effects		
N[C@@H](CS(=O)(=O)O)C(=O)O [cysteic acid]		only unlabelled L-glutamate seems to mediate some inhibition	
NC(CS(=O)O)C(=O)O (centres unmarked) [cysteine sulfinate]		no effect	
NCCc1ccc(O)c(O)c1 [dopamine]		only unlabelled L-glutamate seems to mediate some inhibition	
CNC[C@H](O)c1ccc(O)c(O)c1 [epinephrine]			ligand-specificity of [3H]GABA uptake by L-GAB1 cells [1]: not inhibited
N[C@H](C(=O)O)c1cc(=O)[nH]o1 [ibotenic acid]		without effect	
C=C(C)[C@H]1CN[C@H](C(=O)O)[C@H]1CC(=O)O [kainic acid]	significant inhibition	without effect	
NCCCC[C@H](N)C(=O)O [lysine]			ligand-specificity of [3H]GABA uptake by L-GAB1 cells [1]: not sensitive
N[C@@H](Cc1ccccc1)C(=O)O [phenylalanine]			ligand-specificity of [3H]GABA uptake by L-GAB1 cells [1]: not sensitive; effect of competing ligand on [3H]-5HT uptake, L-S1 [3, 8]: nor the amino acid substrates for catecholamine synthesis, phenylalanine and tyrosine, inhibited uptake of 5-HT; effect of competing ligand on [3H]-5HT uptake, L-S2 [4, 8]: nor the amino acid substrates for catecholamine synthesis, phenylalanine and tyrosine, inhibited uptake of 5-HT
O=C(O)[C@@H]1CCCN1 [proline]			ligand-specificity of [3H]GABA uptake by L-GAB1 cells [1]: not sensitive
N[C@@H](Cn1oc(=O)[nH]c1=O)C(=O)O [quisqualate]	without effect	potent inhibitor	
N[C@@H](CO)C(=O)O [serine]			ligand-specificity of [3H]GABA uptake by L-GAB1 cells [1]: not sensitive
NCCS(=O)(=O)O [taurine]	slight and not statistically significant	only unlabelled L-glutamate seems to mediate some inhibition	
N[C@@H](Cc1c[nH]c2ccccc12)C(=O)O [tryptophan]			ligand-specificity of [3H]GABA uptake by L-GAB1 cells [1]: not sensitive; effect of competing ligand on [3H]-5HT uptake, L-S1 [3, 8]: Neither tryptophan, the amino acid precursor of serotonin, nor the amino acid substrates for catecholamine synthesis, phenylalanine and tyrosine, inhibited uptake of 5-HT; effect of competing ligand on [3H]-5HT uptake, L-S2 [4, 8]: Neither tryptophan, the amino acid precursor of serotonin, nor the amino acid substrates for catecholamine synthesis, phenylalanine and tyrosine, inhibited uptake of 5-HT
N[C@@H](Cc1ccc(O)cc1)C(=O)O [tyrosine]			ligand-specificity of [3H]GABA uptake by L-GAB1 cells [1]: not sensitive; effect of competing ligand on [3H]-5HT uptake, L-S1 [3]: nor the amino acid substrates for catecholamine synthesis, phenylalanine and tyrosine, inhibited uptake of 5-HT; effect of competing ligand on [3H]-5HT uptake, L-S2 [4]: nor the amino acid substrates for catecholamine synthesis, phenylalanine and tyrosine, inhibited uptake of 5-HT
dihydroxykainate	significant inhibition		
methyl-glutamylphosphonic acid [MGPA]		without effect	
